US11654138B2, “Therapeutic agents for treating and preventing autoimmune diseases and cancer and a screening method” (KING FAISAL UNIVERSITY, priority 2019, dated 2023)

How the values were obtained:
peritoneal macrophages = assay: Cytokine secretion by LPS-stimulated peritoneal macrophages; type: cell-based, mice; conditions: 40 μM, LPS 0.5 μg/mL 24 h, compared to LPS alone
Description: The peritoneal macrophages were stimulated in vitro with 0.5 μg/mL lipopolysaccharides (LPS) (Sigma-Aldrich) for 24 h. The CD4^+ CD62L^+ T cells were isolated and purified from spleen using the MACS isolation kit (Miltenyi). The T cells were cultured in the presence of anti-CD3/CD28 dynabeads (Invitrogen), recombinant mouse IL-6 (30 ng/mL; R&D Systems), recombinant transforming growth factor-β (TGF-β) (4 ng/mL; R&D Systems), anti-interferon-γ (IFN-γ) and anti-IL-4 (10 μg/mL; Biolegend) for 72 h to generate Th17 cells.
The mRNAs and cytokines were quantified as follows. A first strand of cDNA was synthesized from total RNA by using the TaqMan reverse transcription kit. […] The relative expression of mRNAs was calculated by ΔΔCt method. For cytokines quantification in serum and cell culture supernatants, ELISA kits of IL-17a, IL-6, TNF-α (Invitrogen) were used following the manufacturer's instructions.
The anti-inflammatory activity of the Arid5a inhibitor POE was tested in vitro by measuring secretion of pro-inflammatory cytokines by macrophages and differentiated Th17 cells. […] The percentage of CD4^+OX40^+ T cells in the polarized Th17 cells was determined using flow cytometry; the results are shown in FIG. 3D. […]

EAE = assay: Experimental autoimmune encephalomyelitis (EAE) model of multiple sclerosis; type: in vivo, C57BL/6 female mice
[1] = 0.5 mg i.p., day 24, vs corn oil, FIG. 5B

## O=C(CSc1nnc(-c2ccncc2)o1)c1ccccc1 [POE, 1-Phenyl-2-(5-pyridin-4-yl-[1,3,4]oxadiazol-2-ylsulfanyl)-ethanone]
Peritoneal macrophages; FIG. 3A
  Level of IL-6 in cell culture supernatant: reduces the level of IL-6
Peritoneal macrophages; FIG. 3B
  Level of TNF-α in cell culture supernatant: does not affect the level of TNF-α
EAE; 0.5 mg i.p. per day, days 0-3, vs corn oil, FIG. 5A
  EAE clinical scores: reduces EAE clinical scores
EAE; [1]
  Serum level of IL-6: reduces serum levels of IL-6 and TNF-α
  Serum level of TNF-α: reduces serum levels of IL-6 and TNF-α
EAE; 10 days after disease induction, FIG. 5D
  Expression of OX40 mRNA in CD4+ T cells isolated from the CNS: reduces the expression of OX40 mRNA
EAE; 10 days after disease induction, flow cytometry, FIG. 5E
  Frequency of CD4+OX40+ T cells in the CNS: reduces the frequency of CD4^+OX40^+ T cells
EAE; lymph node cells restimulated with MOG35-55 and IL-23 72 h, FIG. 5C
  Level of IL-17 in culture supernatant of encephalitogenic CD4+ T cells on restimulation: reduces the level of IL-17
